What all share (type): cell-based
The subject of experiment [1] is P. falciparum 3D7. As to the kind of experiment: P. falciparum primary screening at three fixed concentrations. Particulars: average of at least three experiments; for activity at 1 µM / activity at 10 µM / activity at 100 µM: Plasmodium falciparum, read-out: Primary screening, parasite growth relative to the negative control; for activity at 1 µM: 3D7, compound at 1 µM; for activity at 10 µM: 3D7, compound at 10 µM; for activity at 100 µM: 3D7, compound at 100 µM. As for the experimental part: Apicomplexan parasite cultures were maintained at 3% hematocrit under an atmosphere of 37 °C in 93% N2, 5% CO2, and 2% O2, following standard methods. Synchronized cultures were obtained via 5% sorbitol lysis.
[…] Conditions were tested in triplicate for every concentration, and the test was repeated when the standard deviation was above 10% for any concentration. Z-values varied between 0.83 and 0.98 in the different plates analyzed. Selected compounds (12.3% potential hit rate) were further analyzed via standard growth inhibition assays, carried out as previously described in [54]. Briefly, parasitemia was adjusted to 1–1.3%, with >90% rings after sorbitol synchronization. Two hundred microliters of parasite culture were plated in 96-well microplates and incubated for 48 h at 37 °C in the presence of decreasing concentrations of the tested compounds, in triplicate. Parasitemia was determined by fluorescence-assisted cell sorting (FACS). Non-infected RBCs and samples containing parasitized RBCs (including controls with DMSO as carrier solvent) were diluted in PBS to a final concentration of ~1–10 × 10^6 cells/mL. The cell suspension was stained with SYTO 11 (0.5 mM stock in DMSO, Thermo Fisher Scientific, Waltham, MA, USA), to a final concentration of 0.5 μM. Samples were analyzed in a Becton Dickinson FACSCalibur. Sample excitation was carried out using a 488-nm, air-cooled argon-ion laser at a power of 15 mW, using forward and side scatter to gate the RBC population, and SYTO 11 green fluorescence (530 nm, FITC filter) was collected in a logarithmic scale. The single-cell population was selected on a forward–side scattergram, and the green fluorescence from this population was analyzed. Parasitemia was expressed as the number of parasitized cells per 100 erythrocytes.
(§1) Absorbance values derived from the anti-T. cruzi assays and fluorescence values from the anti-P. falciparum and cell toxicity assays were normalized to the controls. In the primary screening at three fixed doses, the compounds’ inhibitory activity was expressed as a percentage of the negative control (100% parasitic growth). In dose–response assays, the compounds’ IC50 and TC50 values were determined with GraphPad Prism 7 software (version 7.00, 2016), using a non-linear regression analysis model defined by the following equation: Y=100 ÷(1+10^((LogIC50−X)×HillSlope))

In experiment [2] the test system is T. cruzi Tulahuen strain expressing β-galactosidase. As to the kind of experiment: T. cruzi primary screening at three fixed concentrations. The settings on record: for activity at 100 µM / activity at 1 µM / activity at 10 µM: Trypanosoma cruzi, TULAHUEN; for activity at 100 µM: read-out: Primary screening, growth inhibition values at 100 µM; for activity at 1 µM: read-out: Primary screening, growth inhibition values at 1 µM; for activity at 10 µM: read-out: Primary screening, growth inhibition values at 10 µM. As for the experimental part:
(§2) T. cruzi parasites from the Tulahuen strain (discrete typing unit (DTU) VI) expressing β-galactosidase were maintained in culture by the infection of LLC-MK2 cells in DMEM supplemented with 2% FBS and 1% penicillin–streptomycin–glutamine (PSG), as described in [52]. When free-swimming trypomastigotes were released to the culture medium, they were centrifuged for 7 min at 2500 rpm and allowed to swim out of the pellet. Trypomastigotes were used to maintain the parasite cycle, or for the performance of the antiparasitic assays.
[…] Conditions were tested in triplicate for every concentration. Z-values varied between 0.81 and 0.92 in the different plates analyzed. Selected compounds (34.6% potential hit rate) were further analyzed via standard growth inhibition assays. The Z-values of dose–response assays correlated with those previously reported. For both assays, Vero cells and trypomastigotes from the Tulahuen T. cruzi strain expressing β-galactosidase were harvested, centrifuged, and resuspended in DMEM without phenol red supplemented with 1% PSG, 2% FBS, 1 mM sodium pyruvate, and 25 mM HEPES. Vero cells and trypomastigotes were counted, diluted at a concentration of 1 × 10^6 cells/mL each, and mixed 1:1 (v/v). Then, 100 μL of that mixture was added per well to the plates already containing the compounds. Each well contained 50,000 host cells and 50,000 parasites, i.e., multiplicity of infection (MOI) = 1. BNZ was used as control of maximal drug growth inhibition in each round, whereas each plate contained its own negative control (maximum parasite growth; Vero cells plus parasites without drugs) and positive control (minimum parasite growth; trypomastigote forms alone marking an enzymatic zero time or baseline galactosidase activity). After four days at 37 °C, 50 µL of a PBS solution containing 0.25% NP40 and 500 µM chlorophenol red-β-D-galactopyranoside (CPRG) substrate were added per well [32]. Plates were incubated at 37 °C for 4 h, and their absorbance read out at 590 nm using an Epoch Gene5 spectrophotometer.
as §1

Experiment [3] shares this test system. As to the kind of experiment: anti-T. cruzi dose-response growth inhibition assay (Vero cells plus trypomastigotes, CPRG readout). The settings on record: anti-T. cruzi IC50 of non-progressed compounds, read-out: Dose-response assay IC50. As to the method:
as §2
T. cruzi growth was primarily analyzed under three different concentrations ([…]) of the 81 compounds. Conditions were tested in triplicate for every concentration. Z-values varied between 0.81 and 0.92 in the different plates analyzed. Selected compounds (34.6% potential hit rate) were further analyzed via standard growth inhibition assays. The Z-values of dose–response assays correlated with those previously reported. For both assays, Vero cells and trypomastigotes from the Tulahuen T. cruzi strain expressing β-galactosidase were harvested, centrifuged, and resuspended in DMEM without phenol red supplemented with 1% PSG, 2% FBS, 1 mM sodium pyruvate, and 25 mM HEPES. Vero cells and trypomastigotes were counted, diluted at a concentration of 1 × 10^6 cells/mL each, and mixed 1:1 (v/v). Then, 100 μL of that mixture was added per well to the plates already containing the compounds. Each well contained 50,000 host cells and 50,000 parasites, i.e., multiplicity of infection (MOI) = 1. BNZ was used as control of maximal drug growth inhibition in each round, whereas each plate contained its own negative control (maximum parasite growth; Vero cells plus parasites without drugs) and positive control (minimum parasite growth; trypomastigote forms alone marking an enzymatic zero time or baseline galactosidase activity). After four days at 37 °C, 50 µL of a PBS solution containing 0.25% NP40 and 500 µM chlorophenol red-β-D-galactopyranoside (CPRG) substrate were added per well [32]. Plates were incubated at 37 °C for 4 h, and their absorbance read out at 590 nm using an Epoch Gene5 spectrophotometer.
as §1

Where [4] appears, read: compound at 1 µM, average of at least three independent experiments.
Setting [5] is: compound at 10 µM, average of at least three independent experiments.
Where [6] appears, read: Trypanosoma cruzi, TULAHUEN, Vero.

The structures appear in SMILES notation. Where two headings read alike, the source gives them in different places.

Take `CC(C)(C)Nc1ncnc2c1nc(-c1ccccc1)n2C(C)(C)C` [Compound 1B]: the activity at 1 µM in experiment [1] was 112%; in experiment [2] (setting [4]), 96.3%. Also, the activity at 10 µM was found to be 108% in experiment [1] and 93% in experiment [2] (setting [5]). Further, the activity at 100 µM in experiment [1] stood at 69.5%; in experiment [2] it was 12.7%. The IC50 (usually the concentration that gives 50% inhibition) in experiment [3] (setting [6]) is 68.4 µM.

For the molecule `CC(C)(C)Nc1ncnc2c1ncn2C(C)(C)C` [Compound 3F], the “Primary screening, parasite growth relative to the negative control” value worked out at 110.21% in experiment [1] (compound at 1 µM), 108.90% in experiment [1] (compound at 10 µM) and 35.36% in experiment [1] (compound at 100 µM). For the same molecule, the 50% inhibitory concentration (IC50) in experiment [3] was 64.7 µM.

On to `c1ccc(COc2ncnc3c2nc(-c2ccccc2)n3N2CCOCC2)cc1` [Compound 21], for which the “Primary screening, parasite growth relative to the negative control” value in experiment [1] (compound at 1 µM) is listed as 96.68%; in experiment [1] (compound at 10 µM) it was 87.35%; in experiment [1] (compound at 100 µM), 81.22%. Moreover, in experiment [3], the IC50 was found to be 34.8 µM.

Consider `CN1CCN(n2c(-c3ccccc3)nc3c(OCc4ccccc4)ncnc32)CC1` [Compound 27], for which the “Primary screening, parasite growth relative to the negative control” value in experiment [1] (compound at 1 µM) worked out at 97.79%; in experiment [1] (compound at 10 µM), 87.07%; in experiment [1] (compound at 100 µM), 63.16%. Also, in experiment [3], the IC50 was determined as 33.2 µM.

In the case of `Cc1nc2c(OCc3ccccc3)ncnc2n1N1CCN(C)CC1` [Compound 28], the “Primary screening, parasite growth relative to the negative control” value in experiment [1] (compound at 1 µM) was found to be 90.78%; in experiment [1] (compound at 10 µM), 89.44%; in experiment [1] (compound at 100 µM) it was 44.36%. In experiment [3], the IC50 amounted to 40.4 µM.

With `CCOc1ncnc2c1nc(C)n2Cc1ccccc1` [MJ8], the “Primary screening, parasite growth relative to the negative control” value in experiment [1] (compound at 1 µM) amounted to 107.34%; in experiment [1] (compound at 10 µM), 100.82%; in experiment [1] (compound at 100 µM) it was 82.46%. Also, the IC50 in experiment [3] was found to be 67.9 µM.

For the molecule `c1ccc(COc2ncnc3c2ncn3Cc2ccccc2)cc1` [MJ11], the results for the activity at 1 µM in experiment [1] and in experiment [2] (setting [4]) were 103% and 91.4%, respectively. Further, the activity at 10 µM in experiment [1] is 102%; in experiment [2] (setting [5]) it was 85.5%. Further, the activity at 100 µM in experiment [1] was 31.8%; in experiment [2] it was 6.06%. The IC50 in experiment [3] (setting [6]) stood at 17.7 µM.

As to `Cc1nc2c(OC(C)C)ncnc2n1C(C)C` [MJ17], the “Primary screening, parasite growth relative to the negative control” value in experiment [1] (compound at 1 µM) came to 105.71%; in experiment [1] (compound at 10 µM), 108.49%; in experiment [1] (compound at 100 µM) it was 94.00%. Moreover, in experiment [2] (setting [4]), the “Primary screening, growth inhibition values at 1 µM” value stood at 97.87. In addition, the “Primary screening, growth inhibition values at 10 µM” value in experiment [2] (setting [5]) came out at 93.73.

Turning to `CCOc1ncnc2c1ncn2C(C)(C)C` [MJ24], the “Primary screening, parasite growth relative to the negative control” value in experiment [1] (compound at 1 µM) was 103.15%; in experiment [1] (compound at 10 µM), 102.53%; in experiment [1] (compound at 100 µM) it was 74.90%. In addition, in experiment [3], the IC50 was found to be 96.6 µM.

(Values after article PMC8308784, “Novel Purine Chemotypes with Activity against Plasmodium falciparum and Trypanosoma cruzi” (Pharmaceuticals, 2021).)
